Source: patent EP0428132A1, “Pradimicin derivatives” (Bristol-Myers Squibb Company, priority 1989, dated 1991)
Values after ≈ are worked out from the molar mass of the structure shown.

Legend:
[1] = system: Petriellidium boydii IFO8078; experiment: In vitro antifungal activity, serial agar dilution method (Table 1); assay type: cell-based; conditions: Sabouraud dextrose agar (pH 7.0), 28°C for 40 hours; for MIC: Scedosporium boydii, IFO8078
Experimental: (§1) The inoculum size was adjusted to 10⁶ cells/ml, and a volume of approximately 0.003 ml of fungal suspension was applied to the surface of the antibiotic containing agar plates with a multiinoculator. After incubation, the lowest concentration of antibiotic causing virtually complete inhibition of fungal growth was determined as the minimum inhibitory concentration (MIC). Table 1. [table]

[2] = system: Cryptococcus neoformans D49; experiment: as above; assay type: cell-based; conditions: for MIC: Cryptococcus neoformans, D49, 40 h, pH 7, read-out: MIC, Cryptococcus neoformans D49
Experimental: as §1

[3] = system: Blastomyces dermatidis D40; experiment: as above; assay type: cell-based; conditions: for MIC: Blastomyces, D40, 40 h, pH 7, read-out: MIC, Blastomyces dermatidis D40
Experimental: as §1

[4] = system: Trichophyton mentagrophytes D155; experiment: as above; assay type: cell-based; conditions: Sabouraud dextrose agar (pH 7.0), 28°C for 40 hours; for MIC: Trichophyton mentagrophytes, D155
Experimental: as §1

[5] = system: Fusarium moniliforme A2284; experiment: as above; assay type: cell-based; conditions: Sabouraud dextrose agar (pH 7.0), 28°C for 40 hours; for MIC: Fusarium verticillioides, A2284
Experimental: as §1

[6] = system: Aspergillus fumigatus IAM2034; experiment: as above; assay type: cell-based; conditions: Sabouraud dextrose agar (pH 7.0), 28°C for 40 hours; for MIC: Aspergillus fumigatus, IAM2034
Experimental: as §1

[7] = system: Aspergillus fumigatus IAM2530; experiment: as above; assay type: cell-based; conditions: Sabouraud dextrose agar (pH 7.0), 28°C for 40 hours; for MIC: Aspergillus fumigatus, IAM2530
Experimental: as §1

[8] = system: Mucor spinosus IFO5317; experiment: as above; assay type: cell-based; conditions: Sabouraud dextrose agar (pH 7.0), 28°C for 40 hours; for MIC: Mucor spinosus, IFO5317
Experimental: as §1

[9] = system: Candida albicans IAM4888; experiment: as above; assay type: cell-based; conditions: Sabouraud dextrose agar (pH 7.0), 28°C for 40 hours; for MIC: Candida albicans, IAM4888
Experimental: as §1

[10] = system: Sprotricosis schenckii IFO8158; experiment: as above; assay type: cell-based; conditions: for MIC: 40 h, pH 7, read-out: MIC, Sprotricosis schenckii IFO8158
Experimental: as §1

[11] = system: Cryptococcus neoformans IAM4514; experiment: as above; assay type: cell-based; conditions: Sabouraud dextrose agar (pH 7.0), 28°C for 40 hours; for MIC: Cryptococcus neoformans, IAM4514
Experimental: as §1

[12] = system: Trichophyton mentagrophytes #4329; experiment: as above; assay type: cell-based; conditions: Sabouraud dextrose agar (pH 7.0), 28°C for 40 hours; for MIC: Trichophyton mentagrophytes
Experimental: as §1

[13] = system: Candida albicans A9540; experiment: as above; assay type: cell-based; conditions: Sabouraud dextrose agar (pH 7.0), 28°C for 40 hours; for MIC: Candida albicans, A9540
Experimental: as §1

[14] = system: FA21436; experiment: as above; assay type: cell-based, Asoergukkys flavus; conditions: for MIC: 40 h, pH 7, read-out: MIC, Asoergukkys flavus FA21436
Experimental: as §1

[15] = Water solubility, protocol I (PBS, HPLC); assay type: physicochemical; conditions: Method I: PBS without CaCl₂ and MgCl₂.6H₂O
Experimental: The supernatant (2 µL) was analyzed by HPLC using the conditions specified for each compound in the Experimental Section. […] When not soluble, an additional amount of PBS (x µL) was added, sonicated, and centrifuged. When visibly soluble, the solution (2 µL) was injected to HPLC and the peak area was used for the known concentration of the sample.

[16] = system: Candida paratropicalis A25825; experiment: In vitro antifungal activity, serial agar dilution method (Table 1a); assay type: cell-based; conditions: YM agar (pH 7.0, Difco); 30°C for 2 days (yeast) or 4 days (filamentous fungi); read-out: MICs, Candida paratropicalis A25825
Experimental: (§2) The inoculum size was adjusted to 10⁶ cells/ml, and a volume of approximately 0.003 ml of fungal suspension was applied to the surface of the antibiotic containing agar plates with a multiinoculator. After incubation, the lowest concentration of antibiotic causing virtually complete inhibition of fungal growth was determined as the minimum inhibitory concentration (MIC).

[17] = system: Microsporum gypseum WW1107; experiment: as above; assay type: cell-based; conditions: Nannizzia gypsea, YM agar (pH 7.0, Difco), 30°C for 2 days (yeast) or 4 days (filamentous fungi), read-out: MICs, Microsporum gypseum WW1107
Experimental: as §2

[18] = system: Cryptococcus neoformans A15053; experiment: as above; assay type: cell-based; conditions: A15053, YM agar (pH 7.0, Difco), 30°C for 2 days (yeast) or 4 days (filamentous fungi), read-out: MICs, Cryptococcus neoformans A15053
Experimental: as §2

[19] = system: Microsporum canis WW10218; experiment: as above; assay type: cell-based; conditions: WW10218, pH 7, read-out: MICs, Microsporum canis WW10218
Experimental: as §2

[20] = system: Candida tropicalis A25812; experiment: as above; assay type: cell-based; conditions: A25812, YM agar (pH 7.0, Difco), 30°C for 2 days (yeast) or 4 days (filamentous fungi), read-out: MICs, Candida tropicalis A25812
Experimental: as §2

[21] = system: Candida pseudotropicalis A25802; experiment: as above; assay type: cell-based; conditions: Kluyveromyces marxianus, YM agar (pH 7.0, Difco), 30°C for 2 days (yeast) or 4 days (filamentous fungi), read-out: MICs, Candida pseudotropicalis A25802
Experimental: as §2

[22] = system: Candida albicans A25578; experiment: as above; assay type: cell-based; conditions: A25578, YM agar (pH 7.0, Difco), 30°C for 2 days (yeast) or 4 days (filamentous fungi), read-out: MICs, Candida albicans A25578
Experimental: as §2

[23] = system: Trichophyton mentagrophytes A26771; experiment: as above; assay type: cell-based; conditions: A26771, YM agar (pH 7.0, Difco), 30°C for 2 days (yeast) or 4 days (filamentous fungi), read-out: MICs, Trichophyton mentagrophytes A26771
Experimental: as §2

[24] = system: Candida albicans A9540; experiment: as above; assay type: cell-based; conditions: A9540, YM agar (pH 7.0, Difco), 30°C for 2 days (yeast) or 4 days (filamentous fungi), read-out: MICs, Candida albicans A9540
Experimental: as §2

[25] = system: Candida tropicalis A25809; experiment: as above; assay type: cell-based; conditions: YM agar (pH 7.0, Difco), 30°C for 2 days (yeast) or 4 days (filamentous fungi), read-out: MICs, Candida tropicalis A25809
Experimental: as §2

[26] = system: Saccharomyces cerevisiae A25803; experiment: as above; assay type: cell-based; conditions: YM agar (pH 7.0, Difco), 30°C for 2 days (yeast) or 4 days (filamentous fungi), read-out: MICs, Saccharomyces cerevisiae A25803
Experimental: as §2

[27] = system: Trichophyton rubrum A26761; experiment: as above; assay type: cell-based; conditions: A26761, pH 7, read-out: MICs, Trichophyton rubrum A26761
Experimental: as §2

[28] = Sabouraud dextrose agar (pH 7.0), 28°C for 40 hours

## COc1cc(O)c2c(c1)C(=O)c1c(cc3c(c1O)-c1c(cc(C)c(C(=O)N[C@H](C)C(=O)O)c1O)[C@H](O[C@@H]1O[C@H](C)[C@H](N(C)C(=O)CN(C)C)[C@H](O[C@@H]4OC[C@@H](O)[C@H](O)[C@H]4O)[C@H]1O)[C@H]3O)C2=O [Ex. 16, N-(N,N-Dimethylglycyl) pradimicin A]
[1]
  MIC: > 50 µg/mL
[2]
  MIC: 3.4 µg/mL (≈ 3.67 µM)
[3]
  MIC: 50 µg/mL (≈ 54 µM)
[4]
  MIC: 6.3 µg/mL (≈ 6.8 µM)
[5]
  MIC: > 50 µg/mL
[6]
  MIC: 12.5 µg/mL (≈ 13.5 µM)
[7]
  MIC: 12.5 µg/mL (≈ 13.5 µM)
[8]
  MIC: > 50 µg/mL
[9]
  MIC: 6.3 µg/mL (≈ 6.8 µM)
[10]
  MIC: 6.3 µg/mL (≈ 6.8 µM)
[11]
  MIC: 3.1 µg/mL (≈ 3.35 µM)
[12]
  MIC: 6.3 µg/mL (≈ 6.8 µM)
[13]
  MIC: 6.3 µg/mL (≈ 6.8 µM)
[14]
  MIC: > 50 µg/mL

## N-(sodiosulfomethyl) pradimicin A [Ex. 8]
[1]
  MIC, Petriellidium boydii IFO8078: 6.3 µg/mL
[2]; [28]
  MIC, Cryptococcus neoformans D49: 0.8 µg/mL
[3]; [28]
  MIC, Blastomyces dermatidis D40: 1.6 µg/mL
[4]
  MIC, Trichophyton mentagrophytes D155: 6.3 µg/mL
[5]
  MIC, Fusarium moniliforme A2284: 3.1 µg/mL
[6]
  MIC, Aspergillus fumigatus IAM2034: 3.1 µg/mL
[7]
  MIC, Aspergillus fumigatus IAM2530: 1.6 µg/mL
[8]
  MIC, Mucor spinosus IFO5317: > 50.0 µg/mL
[8]; value in parentheses = Partial Inhibition
  Partial Inhibition, Mucor spinosus IFO5317: 6.3 µg/mL
[9]
  MIC, Candida albicans IAM4888: 3.1 µg/mL
[10]; [28]
  MIC, Sprotricosis schenckii IFO8158: 1.6 µg/mL
[11]
  MIC, Cryptococcus neoformans IAM4514: 0.8 µg/mL
[12]
  MIC, Trichophyton mentagrophytes #4329: 3.1 µg/mL
[13]
  MIC, Candida albicans A9540: 6.3 µg/mL
[14]; [28]
  MIC, Asoergukkys flavus FA21436: 6.3 µg/mL

## C=CCN(C)[C@@H]1[C@H](O[C@@H]2OC[C@@H](O)[C@H](O)[C@H]2O)[C@@H](O)[C@H](O[C@H]2c3cc(C)c(C(=O)N[C@H](C)C(=O)O)c(O)c3-c3c(cc4c(c3O)C(=O)c3cc(OC)cc(O)c3C4=O)[C@@H]2O)O[C@@H]1C [Ex. 22, N-(Allyl) pradimicin A]
[15]
  solubility: 5000 µg/mL (≈ 5680 µM)
[16]
  MIC: > 50 µg/mL
[17]
  MIC: > 50 µg/mL
[18]
  MIC: 0.4 µg/mL (≈ 0.454 µM)
[19]
  MIC: 1.6 µg/mL (≈ 1.82 µM)
[20]
  MIC: > 50 µg/mL
[21]
  MIC: 3.2 µg/mL (≈ 3.63 µM)
[22]
  MIC: 3.2 µg/mL (≈ 3.63 µM)
[23]
  MIC: > 50 µg/mL
[24]
  MIC: > 50 µg/mL

## COc1cc(O)c2c(c1)C(=O)c1c(cc3c(c1O)-c1c(cc(C)c(C(=O)N[C@H](C)C(=O)O)c1O)[C@H](O[C@@H]1O[C@H](C)[C@H](N(C)C/C=C/C(=O)O)[C@H](O[C@@H]4OC[C@@H](O)[C@H](O)[C@H]4O)[C@H]1O)[C@H]3O)C2=O [Ex. 13, N-(trans-3-carboxy-2-propenyl) pradimicin A]
[1]
  MIC: > 100 µg/mL
[2]
  MIC: 50 µg/mL (≈ 54.1 µM)
[3]
  MIC: > 100 µg/mL
[4]
  MIC: > 100 µg/mL
[5]
  MIC: > 100 µg/mL
[6]
  MIC: 100 µg/mL (≈ 108 µM)
[7]
  MIC: 100 µg/mL (≈ 108 µM)
[8]
  MIC: > 100 µg/mL
[9]
  MIC: 50 µg/mL (≈ 54.1 µM)
[10]
  MIC: 100 µg/mL (≈ 108 µM)
[11]
  MIC: 25 µg/mL (≈ 27 µM)
[12]
  MIC: > 100 µg/mL
[13]
  MIC: 100 µg/mL (≈ 108 µM)
[14]
  MIC: 100 µg/mL (≈ 108 µM)

## COC(=O)/C=C/CN(C)[C@@H]1[C@H](O[C@@H]2OC[C@@H](O)[C@H](O)[C@H]2O)[C@@H](O)[C@H](O[C@H]2c3cc(C)c(C(=O)N[C@H](C)C(=O)O)c(O)c3-c3c(cc4c(c3O)C(=O)c3cc(OC)cc(O)c3C4=O)[C@@H]2O)O[C@@H]1C [compound 12, N-(trans-3-methoxycarbonyl-2-propenyl) pradimicin A]
[1]
  MIC: > 25 µg/mL
[2]
  MIC: 6.3 µg/mL (≈ 6.71 µM)
[3]
  MIC: > 25 µg/mL
[4]
  MIC: 12.5 µg/mL (≈ 13.3 µM)
[5]
  MIC: > 25 µg/mL
[6]
  MIC: 12.5 µg/mL (≈ 13.3 µM)
[7]
  MIC: 12.5 µg/mL (≈ 13.3 µM)
[8]
  MIC: > 25 µg/mL
[9]
  MIC: 25 µg/mL (≈ 26.6 µM)
[10]
  MIC: 12.5 µg/mL (≈ 13.3 µM)
[11]
  MIC: 6.3 µg/mL (≈ 6.71 µM)
[12]
  MIC: 25 µg/mL (≈ 26.6 µM)
[13]
  MIC: > 25 µg/mL
[14]
  MIC: 25 µg/mL (≈ 26.6 µM)

## CCOC(=O)CN(C)[C@@H]1[C@H](O)[C@@H](O)[C@H](O[C@H]2c3cc(C)c(C(=O)N[C@H](C)C(=O)O)c(O)c3-c3c(cc4c(c3O)C(=O)c3cc(OC)cc(O)c3C4=O)[C@@H]2O)O[C@@H]1C [Ex. 6, N-(ethoxycarbonylmethyl) pradimicin B]
[15]
  solubility: > 4000 µg/mL
[16]
  MIC: 6.3 µg/mL (≈ 7.93 µM)
[17]
  MIC: 12.5 µg/mL (≈ 15.7 µM)
[18]
  MIC: 1.6 µg/mL (≈ 2.01 µM)
[19]
  MIC: 1.6 µg/mL (≈ 2.01 µM)
[20]
  MIC: 3.2 µg/mL (≈ 4.03 µM)
[25]
  MIC: 1.6 µg/mL (≈ 2.01 µM)
[21]
  MIC: 1.6 µg/mL (≈ 2.01 µM)
[26]
  MIC: 0.8 µg/mL (≈ 1.01 µM)
[22]
  MIC: 3.2 µg/mL (≈ 4.03 µM)
[23]
  MIC: 6.3 µg/mL (≈ 7.93 µM)
[27]
  MIC: 6.3 µg/mL (≈ 7.93 µM)
[24]
  MIC: 6.3 µg/mL (≈ 7.93 µM)
